Measured values from patent publication US12616759B2, “Uses of labeled HSP90 inhibitors” (Sloan-Kettering Institute for Cancer Research, priority 2011, dated 2026).

Experiments:
HSP90 [1] = experiment: fluorescence polarization HSP90 binding assay using SKBr3 cancer cell lysate; conditions: fluorescence polarization
HSP90 [2] = experiment: concomitant HSP90-streptavidin binding in live K562 cells; format: cell-based; conditions: for HSP90-streptavidin binding with K562 cells: live cells
Excerpt: Having shown that some of the molecules bind concomitantly to HSP90 and streptavidin, we next investigated whether this can similarly be accomplished in live cells.

HSP90 [3] = experiment: concomitant binding to HSP90 and streptavidin, K562 lysate; conditions: 100 μM; for HSP90-streptavidin binding with K562 lysate: streptavidin beads, overnight; for band at approximately 90 kDa, concomitant binding to HSP90 and streptavidin: K562 lysate, SDS-PAGE
Experimental: Having shown that each of the prepared biotinylated molecules retain good affinity to HSP90 we next wanted to determine whether the chain length was sufficient to maintain concomitant binding to HSP90 and streptavidin. […] Following sufficient washing to remove any unbound material, the remaining bead pellet was analyzed by SDS-PAGE. The gel was washed and stained with coomasie blue for 1 h.

AML cell lines = experiment: apoptosis in AML cell lines, acridine orange/ethidium bromide; format: cell-based, human
Experimental: (§1) Apoptosis Assay: Cells were treated for 24, 48 or 72 h with vehicle (DMSO) or inhibitors as indicated. Following staining with Acridine Orange and Ethidium Bromide (1:1 mix of 100 µg/ml), cells were visualized with a fluorescent microscope (Zeiss Axiovert 40 CFL) and counted. Percentage of apoptotic cells was determined from 200-300 cells counted in each group. The percentage of apoptotic cells was calculated as: % Apoptotic cells=(total number of cells with apoptotic nuclei/total number of cells counted)×100.

lung and bone metastases = experiment: response of breast cancer patient to STA9090 by CT and FDG-PET; format: in vivo, human; conditions: triple-negative breast cancer patient
Experimental: FIGS. 28A, 28B, 28C, and 28D. A triple-negative breast cancer patient was imaged with ^124I-PU-H71 PET. At 20 min post-injection, uptake is noted in a lung mass (left arrow), and a bone lesion (right arrow) FIG. 28A, but at 24 h uptake is seen only in the lung lesion FIG. 28B. Both the lung and bone tumors are confirmed by CT and FDG-scans FIG. 28C. The patient started treatment with the HSP90 inhibitor STA-9090.
In another aspect of the present invention, patients who are identified as being candidates for HSP90 therapy are treated with a pharmaceutically effective amount of an HSP90 inhibitor. We have determined that cancer patients that are determined to be candidates to HSP90 inhibition therapy respond highly favorably to HSP90 inhibition therapy. If a patient has multiple tumors, then only those tumors with a sufficient avidity for the radiolabeled HSP90 inhibitor are expected to respond to HSP90 inhibition therapy. […] Similar results were obtained in patients with lymphoma, pancreatic cancer and neuroblastoma patients.

[4] = test system: FL5.12 mAKT-transfected cells; experiment: apoptosis in mAKT-transfected FL5.12 cells; format: cell-based
Excerpt: FL5.12 was derived as an interleukin-3 (IL-3)-dependent cell line with a functional JAK/STAT pathway and it has characteristic features of an early lymphocytic progenitor. Both the parental cells and the transfected cells express moderate-levels of active AKT and STAT5, as evidenced by AKT phosphorylation on Ser473 and STAT5 phosphorylation on Tyr694, respectively. The level of p-STAT5 but not p-AKT is dependent on the presence of IL-3. Introduction of a constitutively activated, myristoylated form of AKT (mAKT) under the control of a doxycycline (DOX)-inducible promoter further allows for the regulation of p-AKT levels in these cells. All together, these cells are a good isogenic model to evaluate the dependence of HSP90 inhibitor apoptotic sensitivity on activated AKT and STAT5-pathways.
Cells: Kasumi-1, SKNO-1, MOLM-13, MO-91, HEL, HL-60, THP-1, MV4-11 were grown in RPMI media supplemented with 10 mM HEPES, 4.5 g/L glucose, 1.5 g/L sodium bicarbonate, 1 mM sodium pyruvate, 10% FBS, and 1% penicillin/streptomycin. The stable transfectants of FL5.12 were previously described (18-Karnauskas 2003). In brief, for the generation of FL5.mAKT the myristylated AKT was cloned in the doxycycline inducible vector pRevTRE (Clontech) (this clone is designated mAKT). As a control, cell were transfected with vector alone (this clone is designated Vector). For generation of FL5.mAkt.Bcl-xL, the human Bcl-xL cDNA was cloned into the EcoRI site of the pBabePuro vector, and transfected into FL5.mAkt3 as described (18) (this clone is designated mAKT.Bcl-xL). These lines were cultured as described previously using DME-HG media supplemented with 10 mM HEPES, 10% FBS media containing 1 mg/ml Geneticin (G418) (Sigma #G9516) and 1 or 2 ng/mL of IL-3 (RD Systems #403 ML).
as §1
Western blot: Cells were grown to 60-70% confluence and treated with inhibitor or vehicle for the indicated times. Protein lysates were prepared in 50 mM Tris pH 7.4, 150 mM NaCl and 1% NP-40 lysis buffer. Protein concentrations were measured using the BCA kit (Pierce) according to the manufacturer's instructions. Protein lysates (10-100 μg) were resolved by SDS-PAGE, transferred onto nitrocellulose membrane and incubated with the indicated primary antibodies. […]

## CC(C)N(CCCn1c(Sc2cc3c(cc2I)OCO3)nc2c(N)ncnc21)C(=O)CCOCCOCCOCCOCCNC(=O)CCCC[C@@H]1SC[C@@H]2NC(=O)N[C@@H]21 [PU-H71-biotin9]
HSP90 [1]
  EC50: 110 nM
HSP90 [2]; 10 μM
  binding in live K562 cells: maintain good binding
HSP90 [2]; 100 μM, 4 h
  binding in live K562 cells: are able to permeate the cell membrane
  HSP90-streptavidin binding with K562 cells: Yes
HSP90 [2]; lowest concentration 1 μM
  band at approximately 90 kDa: a faint band is still present
HSP90 [3]
  HSP90-streptavidin binding with K562 lysate: Yes
  band at approximately 90 kDa, concomitant binding to HSP90 and streptavidin: show a band at approximately 90 kDa

## Nc1ncnc2c1nc(Sc1cc3c(cc1I)OCO3)n2CCCNC(=O)CCCC[C@@H]1SC[C@@H]2NC(=O)N[C@@H]21 [PU-H71-biotin3]
HSP90 [1]
  EC50: 44.3 nM
HSP90 [2]; 100 μM, 4 h
  HSP90-streptavidin binding with K562 cells: No
HSP90 [3]
  HSP90-streptavidin binding with K562 lysate: No
  band at approximately 90 kDa, concomitant binding to HSP90 and streptavidin: did not show a band at 90 kDa

## Nc1ncnc2c1nc(Sc1cc3c(cc1I)OCO3)n2CCCNCCOCCOCCOCCNC(=O)CCCC[C@@H]1SC[C@@H]2NC(=O)N[C@@H]21 [PU-H71-biotin]
HSP90 [1]
  EC50: 58.9 nM
HSP90 [2]; 100 μM, 4 h
  binding in live K562 cells: failed to maintain binding in live cells
  HSP90-streptavidin binding with K562 cells: No
HSP90 [3]
  HSP90-streptavidin binding with K562 lysate: Yes
  band at approximately 90 kDa, concomitant binding to HSP90 and streptavidin: show a band at approximately 90 kDa

## COc1cccc(-c2cc(=O)c3ccccc3o2)c1N [MEKi, reference compound]
AML cell lines; 24, 48 and 72 h
  induction of apoptosis: Modest or little induction of apoptosis

## CC(C)N(CCCn1c(Sc2cc3c(cc2I)OCO3)nc2c(N)ncnc21)C(=O)CCCC[C@@H]1SC[C@@H]2NC(=O)N[C@@H]21 [PU-H71-biotin2]
HSP90 [1]
  EC50: 154 nM
HSP90 [2]; 100 μM, 4 h
  HSP90-streptavidin binding with K562 cells: No
HSP90 [3]
  HSP90-streptavidin binding with K562 lysate: No
  band at approximately 90 kDa, concomitant binding to HSP90 and streptavidin: did not show a band at 90 kDa

## CC(C)c1cc(-c2n[nH]c(=O)n2-c2ccc3c(ccn3C)c2)c(O)cc1O [STA9090]
Lung and bone metastases
  tumor response: early partial response was demonstrated by FDG PET-CT studies in the lung mass but not in the spinal lesion
Lung and bone metastases; listed as STA-9090
  tumor response: the lung but not the bone lesion is remarkably reduced in size

## Nc1ncnc2c1nc(Sc1cc3c(cc1I)OCO3)n2CCCNC(=O)CCCCCNC(=O)CCCC[C@@H]1SC[C@@H]2NC(=O)N[C@@H]21 [PU-H71-biotin4]
HSP90 [1]
  EC50: 34.8 nM
HSP90 [2]; 100 μM, 4 h
  HSP90-streptavidin binding with K562 cells: No
HSP90 [3]
  HSP90-streptavidin binding with K562 lysate: No
  band at approximately 90 kDa, concomitant binding to HSP90 and streptavidin: did not show a band at 90 kDa

## O=c1[nH]c2ccccc2n1C1CCN(Cc2ccc(-c3nc4cc5[nH]cnc5cc4nc3-c3ccccc3)cc2)CC1 [AKTi, reference compound]
AML cell lines; HEL cells in culture
  effect on apoptosis: little to no effect
[4]; AKT activity increased by DOX
  apoptotic cells: 30%
[4]; without DOX
  apoptotic cells: 15-20%

## Nc1ncnc2c1nc(Sc1cc3c(cc1I)OCO3)n2CCCNC(=O)CCOCCOCCOCCOCCNC(=O)CCCC[C@@H]1SC[C@@H]2NC(=O)N[C@@H]21 [PU-H71-biotin6]
HSP90 [1]
  EC50: 66.2 nM
HSP90 [2]; 0.5 μM
  band at approximately 90 kDa: still shows a faint band
HSP90 [2]; 10 μM
  binding in live K562 cells: maintain good binding
HSP90 [2]; 100 μM, 4 h
  binding in live K562 cells: are able to permeate the cell membrane
  HSP90-streptavidin binding with K562 cells: Yes
HSP90 [2]; lowest concentration 1 μM
  band at approximately 90 kDa: a faint band is still present
HSP90 [3]
  HSP90-streptavidin binding with K562 lysate: Yes
  band at approximately 90 kDa, concomitant binding to HSP90 and streptavidin: show a band at approximately 90 kDa

## CC(C)N(CCCn1c(Sc2cc3c(cc2I)OCO3)nc2c(N)ncnc21)C(=O)CCCCCNC(=O)CCCCCNC(=O)CCCC[C@@H]1SC[C@@H]2NC(=O)N[C@@H]21 [PU-H71-biotin8]
HSP90 [1]
  EC50: 76.9 nM
HSP90 [2]; 100 μM, 4 h
  binding in live K562 cells: are able to permeate the cell membrane
  HSP90-streptavidin binding with K562 cells: Yes
HSP90 [3]
  HSP90-streptavidin binding with K562 lysate: Yes
  band at approximately 90 kDa, concomitant binding to HSP90 and streptavidin: show a band at approximately 90 kDa

## CC(C)N(CCCn1c(Sc2cc3c(cc2I)OCO3)nc2c(N)ncnc21)C(=O)CCCCCNC(=O)CCCC[C@@H]1SC[C@@H]2NC(=O)N[C@@H]21 [PU-H71-biotin7]
HSP90 [1]
  EC50: 72.8 nM
HSP90 [2]; 100 μM, 4 h
  HSP90-streptavidin binding with K562 cells: No
HSP90 [3]
  HSP90-streptavidin binding with K562 lysate: No
  band at approximately 90 kDa, concomitant binding to HSP90 and streptavidin: did not show a band at 90 kDa

## Nc1ncnc2c1nc(Sc1cc3c(cc1I)OCO3)n2CCCNC(=O)CCCCCNC(=O)CCCCCNC(=O)CCCC[C@@H]1SC[C@@H]2NC(=O)N[C@@H]21 [PU-H71-biotin5]
HSP90 [1]
  EC50: 31.4 nM
HSP90 [2]; 100 μM, 4 h
  binding in live K562 cells: are able to permeate the cell membrane
  HSP90-streptavidin binding with K562 cells: Yes
HSP90 [3]
  HSP90-streptavidin binding with K562 lysate: Yes
  band at approximately 90 kDa, concomitant binding to HSP90 and streptavidin: show a band at approximately 90 kDa
